Laboratory results reported in US9321809B2, “Macrocyclic compounds for suppressing replication of hepatitis C virus” (Ginkgo Pharma Co., Ltd., priority 2012, dated 2016).

tested on: HCV replicon-containing huh-7 cells (replicon 1b); experiment: HCV Replicon Assay (luciferase readout); type: cell-based; conditions: Hepatitis C virus; HCV replicon 1b in huh-7 cells, 48 h incubation, 1% DMSO, luciferase signal; read-out: EC50 (EC 50 on replicon 1b)
Description: Compounds of formuala (I) are tested for the ability to inhibit viral replication of the Hepatitis C viruses by the following in vitro assays.
DMEM (Life Technologies #41965-039) was supplemented with 10% FBS, 2 mM L-glutamine (Life Technologies #25030-024), penicillin (100 units/ml)/streptomycin (100 micrograms/ml) (Life Technologies #15140-114), 1× non-essential amino acids (Life Technologies #11140-035).
Complete media was prepared by mixing FBS, DMEM media with Geneticin (G418). The compete media was preincubated at 37° C. in a CO2 incubator. Then, HCV replicon-containing huh-7 cells (V. Lohmann et. al. Science, 285, (1999)110-113) was taken out from 37° C. incubator. The residual medium was absorbed, and the cells were washed with PBS. After washing fluid was removed, 1 ml 0.25% trypsin/0.02% EDTA solution. The cells were washed by the above trypsin/EDTA solution to make sure that each cell was cleaned. After the trypsin/EDTA solution was absorbed, the mixture was incubated at 37° C. in a CO2 incubator for 3-5 minutes. Morphological changes were observed by inverted microscope, till the cells were detached from the wall of container completely.
3 ml of complete media was added to make the cells to suspend. The cells are counted with hematometer. Appropriate volumes of the complete media was added to adjust the cell density to 100,000/ml. Cells were plated with 100 μl of suspension at 10,000/well of 96 well plate. Plates were placed into 37° C. 5% CO2 incubator for 24 h.
Preparation of Drug Solution:
Drugs were diluted under aseptic conditions.
Stock solutions may be prepared before the assay, which means that the test compounds are dissolved in 100% DMSO to afford a final concentration of 2 mM. Before the 96 well culture was completed, the stock solution was diluted with culter media to 100 fold of the final concentration (100× solution).
96-well plates were taken out from 37° C. CO2 incubator and morphological changes were observed by inverted microscope. In a ventilator, 1 μl of 100× drug solution was added to wells of 96 well plate until the final concentration of DMSO in the mixture is 1%. The plates were incubated at 37° C. in a CO2 environment for 48 h. 30 μl of Stead-G1® Luciferase Assay System (bought from Promega) was added to each well of 96 well plates and each plate is shaken in a plate shaker for 5 minutes to ensure cells cleavaged completely. The fluorescence signal was quantitated in a Perkin-Elmer plate reader (Envision) and integral time was setted to be 2 second. The following data were achieved after recording and analyzing the data.

| Structure (SMILES) | EC50 |
| --- | --- |
| CCC1C[C@]1(NC(=O)[C@@H]1C[C@@H]2CN1C(=O)[C@H](C1CCCCC1)NC(=O)[C@@H](NC(=O)OC(C)(C)C)COCCCc1cc3c(nccc3cc1OC)O2)C(=O)NS(=O)(=O)C1CC1 (stereo in doubt) [Compound IIb-6, tert-butyl N-[(3R,5S,8S,11S)-8-cyclohexyl-5-{[(1R,2S)-1-[(cyclopropanesulfonyl)carbamoyl]-2-ethylcyclopropyl]carbamoyl}-18-methoxy-7,10-dioxo-2,13-dioxa-6,9,23-triazatetracyclo[15.6.2.1^3,6.0^20,24]hexacosa-1(23),17(25),18,20(24),21-pentaen-11-yl]carbamate] | 50 to 500 nM |
| C=C[C@@H]1C[C@]1(NC(=O)[C@@H]1C[C@@H]2CN1C(=O)[C@H](C(C)(C)C)NC(=O)[C@@H](N)COC/C=C/c1cccc3c1CN(C3)C(=O)O2)C(=O)NS(=O)(=O)C1CC1 [Compound IIa-2, (1R,12E,17S,20S,23S)-17-amino-20-tert-butyl-N-[(1R,2S)-1-[(cyclopropanesulfonyl)carbamoyl]-2-ethenylcyclopropyl]-3,18,21-trioxo-2,15-dioxa-4,19,22-triazatetracyclo[20.2.1.1^4,7.0^6,11]hexacosa-6,8,10,12-tetraene-23-carboxamide] | 10 to 50 nM |
| C=C[C@@H]1C[C@]1(NC(=O)[C@@H]1C[C@@H]2CN1C(=O)[C@H](C(C)(C)C)NC(=O)[C@H](NC(=O)OC(C)(C)C)COC/C=C/c1cccc3c1CN(C3)C(=O)O2)C(=O)NS(=O)(=O)C1CC1 [Compound IIa-3, tert-butyl N-[(1R,12E,17R,20S,23S)-20-tert-butyl-23-{[(1R,2S)-1-[(cyclopropanesulfonyl)carbamoyl]-2-ethenylcyclopropyl]carbamoyl}-3,18,21-trioxo-2,15-dioxa-4,19,22-triazatetracyclo[20.2.1.1^4,7.0^6,11]hexacosa-6,8,10,12-tetraen-17-yl]carbamate] | 50 to 500 nM |
| C=C[C@@H]1C[C@]1(NC(=O)[C@@H]1C[C@@H]2CN1C(=O)[C@H](C(C)(C)C)NC(=O)[C@H](N)COC/C=C/c1cccc3c1CN(C3)C(=O)O2)C(=O)NS(=O)(=O)C1CC1 [Compound IIa-4, (1R,12E,17R,20S,23S)-17-amino-20-tert-butyl-N-[(1R,2S)-1-[(cyclopropanesulfonyl)carbamoyl]-2-ethenylcyclopropyl]-3,18,21-trioxo-2,15-dioxa-4,19,22-triazatetracyclo[20.2.1.1^4,7.0^6,11]hexacosa-6,8,10,12-tetraene-23-carboxamide] | 500 to 20000 nM |
| C=C[C@@H]1C[C@]1(NC(=O)[C@@H]1C[C@@H]2CN1C(=O)[C@H](C(C)(C)C)NC(=O)[C@@H](NC(=O)c1cnccn1)COC/C=C/c1cccc3c1CN(C3)C(=O)O2)C(=O)NS(=O)(=O)C1CC1 [Compound IIa-5, (1R,12E,17S,20S,23S)-20-tert-butyl-23-N-[(1R,2S)-1-[(cyclopropanesulfonyl)carbamoyl]-2-ethenylcyclopropyl]-3,18,21-trioxo-17-C-pyrazine-2-2,15-dioxa-4,19,22-triazatetracyclo[20.2.1.1^4,7.0^6,11]hexacosa-6,8,10,12-tetraene-17,23-diamido] | 50 to 500 nM |
| C=C[C@@H]1C[C@]1(NC(=O)[C@@H]1C[C@@H]2CN1C(=O)[C@H](C(C)(C)C)NC(=O)[C@H](NC(=O)c1cnccn1)COC/C=C/c1cccc3c1CN(C3)C(=O)O2)C(=O)NS(=O)(=O)C1CC1 [Compound IIa-6, (1R,12E,17R,20S,23S)-20-tert-butyl-23-N-[(1R,2S)-1-[(cyclopropanesulfonyl)carbamoyl]-2-ethenylcyclopropyl]-3,18,21-trioxo-17-C-pyrazine-2-2,15-dioxa-4,19,22-triazatetracyclo[20.2.1.1^4,7.0^6,11]hexacosa-6,8,10,12-tetraene-17,23-diamido] | 50 to 500 nM |
| C=C[C@@H]1C[C@]1(NC(=O)[C@@H]1C[C@@H]2CN1C(=O)[C@H](C(C)(C)C)NC(=O)[C@@H](NC(C)=O)COC/C=C/c1cccc3c1CN(C3)C(=O)O2)C(=O)NS(=O)(=O)C1CC1 [Compound IIa-7, (1R,12E,17S,20S,23S)-20-tert-butyl-N-[(1R,2S)-1-[(cyclopropanesulfonyl)carbamoyl]-2-ethenylcyclopropyl]-17-acetamido-3,18,21-trioxo-2,15-dioxa-4,19,22-triazatetracyclo[20.2.1.1^4,7.0^6,11]hexacosa-6,8,10,12-tetraene-23-carboxamide] | 50 to 500 nM |
| C=C[C@@H]1C[C@]1(NC(=O)[C@@H]1C[C@@H]2CN1C(=O)[C@H](C(C)(C)C)NC(=O)[C@@H](NS(C)(=O)=O)COC/C=C/c1cccc3c1CN(C3)C(=O)O2)C(=O)NS(=O)(=O)C1CC1 [Compound IIa-8, (1R,12E,17S,20S,23S)-20-tert-butyl-N-[(1R,2S)-1-[(cyclopropanesulfonyl)carbamoyl]-2-ethenylcyclopropyl]-17-methanesulfonamido-3,18,21-trioxo-2,15-dioxa-4,19,22-triazatetracyclo[20.2.1.1^4,7.0^6,11]hexacosa-6,8,10,12-tetraene-23-carboxamide] | 10 to 50 nM |
| C=C[C@@H]1C[C@]1(NC(=O)[C@@H]1C[C@@H]2CN1C(=O)[C@H](C(C)(C)C)NC(=O)[C@@H](NC(=O)OCC)COC/C=C/c1cccc3c1CN(C3)C(=O)O2)C(=O)NS(=O)(=O)C1CC1 [Compound IIa-9, ethyl N-[(1R,12E,17S,20S,23S)-20-tert-butyl-23-{[(1R,2S)-1-[(cyclopropanesulfonyl)carbamoyl]-2-ethenylcyclopropyl]carbamoyl}-3,18,21-trioxo-2,15-dioxa-4,19,22-triazatetracyclo[20.2.1.1^4,7.0^6,11]hexacosa-6,8,10,12-tetraen-17-yl]carbamate] | 10 to 50 nM |
| C=C[C@@H]1C[C@]1(NC(=O)[C@@H]1C[C@@H]2CN1C(=O)[C@H](C(C)(C)C)NC(=O)[C@@H](NC(=O)OCc1ccccc1)COC/C=C/c1cccc3c1CN(C3)C(=O)O2)C(=O)NS(=O)(=O)C1CC1 [Compound IIa-10, benzyl N-[(1R,12E,17S,20S,23S)-20-tert-butyl-23-{[(1R,2S)-1-[(cyclopropanesulfonyl)carbamoyl]-2-ethenylcyclopropyl]carbamoyl}-3,18,21-trioxo-2,15-dioxa-4,19,22-triazatetracyclo[20.2.1.1^4,7.0^6,11]hexacosa-6,8,10,12-tetraen-17-yl]carbamate] | < 10 nM |
| C=C[C@@H]1C[C@]1(NC(=O)[C@@H]1C[C@@H]2CN1C(=O)[C@H](C(C)(C)C)NC(=O)[C@@H](NC(=O)OC1CCCC1)COC/C=C/c1cccc3c1CN(C3)C(=O)O2)C(=O)NS(=O)(=O)C1CC1 [Compound IIa-11, cyclopentyl N-[(1R,12E,17S,20S,23S)-20-tert-butyl-23-{[(1R,2S)-1-[(cyclopropanesulfonyl)carbamoyl]-2-ethenylcyclopropyl]carbamoyl}-3,18,21-trioxo-2,15-dioxa-4,19,22-triazatetracyclo[20.2.1.1^4,7.0^6,11]hexacosa-6,8,10,12-tetraen-17-yl]carbamate] | < 10 nM |
| C=C[C@@H]1C[C@]1(NC(=O)[C@@H]1C[C@@H]2CN1C(=O)[C@H](C(C)(C)C)NC(=O)[C@@H](NC(=O)NC(C)(C)C)COC/C=C/c1cccc3c1CN(C3)C(=O)O2)C(=O)NS(=O)(=O)C1CC1 [Compound IIa-12, (1R,12E,17S,20S,23S)-20-tert-butyl-17-[(tert-butylcarbamoyl)amino]-N-[(1R,2S)-1-[(cyclopropanesulfonyl)carbamoyl]-2-ethenylcyclopropyl]-3,18,21-trioxo-2,15-dioxa-4,19,22-triazatetracyclo[20.2.1.1^4,7.0^6,11]hexacosa-6,8,10,12-tetraene-23-carboxamide] | < 10 nM |
| C=C[C@@H]1C[C@]1(NC(=O)[C@@H]1C[C@@H]2CN1C(=O)[C@H](C(C)(C)C)NC(=O)[C@@H](NC(=O)OC(C)(C)C)COCCCc1cccc3c1CN(C3)C(=O)O2)C(=O)NS(=O)(=O)C1CC1 [Compound IIa-13, tert-butyl N-[(1R,17S,20S,23S)-20-tert-butyl-23-{[(1R,2S)-1-[(cyclopropanesulfonyl)carbamoyl]-2-ethenylcyclopropyl]carbamoyl}-3,18,21-trioxo-2,15-dioxa-4,19,22-triazatetracyclo[20.2.1.1^4,7.0^6,11]hexacosa-6,8,10-trien-17-yl]carbamate] | 10 to 50 nM |
